# Laboratory results taken from PubChem BioAssay AID652241 (Broad Institute, 2013).
# Inconclusive results are not listed. Calls of active or inactive are those of the source.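 Rule for the calls: active = fitted curve reaches activity 50 in the expected rising direction at or below the top valid tested dose; inconclusive = no clear call, values can overlap the other calls; inactive = activity in the wrong direction, and the rest.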 Square brackets hold non-standard residues; d marks the D form. Peptide text beside a SMILES is read from it. ξ: configuration not given here. Ac5c = NC1(C(=O)O)CCCC1; ξP = O=C(O)C1CCCN1
# Biological target: Virion infectivity factor (Human immunodeficiency virus type 1 group M subtype B (isolate BH10)) + Virion infectivity factor (Human immunodeficiency virus type 1 group M subtype B (isolate BRU/LAI)) + Virion infectivity factor (Human immunodeficiency virus type 1 group M subtype B (isolate PCV12)) + Virion infectivity factor (Human immunodeficiency virus type 1 group M subtype B (isolate HXB2)) (UniProt P69720+P69721+P69722+P69723)
# Assay: dose-dependent disruption of HIV Vif self-association – imaging, HEK293T, cherry-picks, dose response (AID 652241);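 note: imaged cell signal that rises when Vif self-association is disrupted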
# Details: HEK293T Vif multimerization imaging, 24 h
row,Compound,AC50
1,COc1ccc(-c2cc(C(F)(F)F)nc(S(C)(=O)=O)n2)cc1OC,8.03 µM
2,Nc1c(C(=O)Nc2nc3ccccc3s2)sc2nc(-c3cccs3)ccc12,7.57 µM
3,Cc1ccc2c(COC(=O)c3ccccc3OC(F)F)cc(=O)oc2c1,12 µM
4,CC(=O)Nc1ccc(NC(=O)COc2ccccc2C(=O)Nc2cccc(Cl)c2Cl)cc1,5.9 µM
5,Cc1nc(-c2ccc(O)c(O)c2)cs1,> 19.5 µM (inactive)
6,COc1cc(NC(=O)c2ccc(-c3csc(C)n3)cc2)c(OC)cc1Cl,10.3 µM
7,NC(CCc1ccccc1)c1csc(Nc2ccc(C(=O)c3ccccc3)cc2)n1 (centres undefined),10.2 µM
8,CC(=O)Nc1ccc(-c2ccnc3c2CC(C(=O)NCc2ccccc2)O3)cc1 (centres undefined),1.28 µM
9,Cc1cc(C)c2nc3sc(C(=O)N4CCOCC4)c(N)c3cc2c1,1.85 µM
10,CCc1ccc2[nH]c3nc(SCC(=O)NNC(=O)c4ccc(C(C)(C)C)cc4)nnc3c2c1,7.22 µM
11,CCc1ccc(N2C(=O)/C(=C/c3cccs3)N(CC(=O)OC)C2=S)cc1,18.8 µM
12,Cn1nnnc1Sc1ncnc2scc(-c3ccc(Cl)cc3)c12,3.75 µM
13,COC(=O)c1ccc(NCc2cc(O)ccc2O)cc1O,10.9 µM
14,COc1ccc(NC(=O)C2(C)Cc3c(-c4cccc(NC(C)=O)c4)ccnc3O2)cn1 (centres undefined),8.99 µM
15,CCOc1cc(/C=C2\CN(CC)C/C(=C\c3ccc(O)c(OCC)c3)C2=O)ccc1O,7.26 µM
16,CCN(CC)C1Oc2cc3c(cc2C(c2cc(OC)c(OC)c(OC)c2)C1C)OCO3 (centres undefined),6.24 µM
17,O=C(CCCCCn1c(=S)[nH]c2ccc(N3CCOCC3)cc2c1=O)NCc1ccccc1Cl,6.23 µM
18,COc1cc(C2c3cc4c(cc3CC3COC(=O)C32)OCO4)cc(OC)c1OC (centres undefined),9.81 µM
19,COc1cc(-c2cnc3c(NC=O)cc(-c4ccccc4)cn23)cc(OC)c1OC,2.45 µM
20,COCCNC(=O)c1nn2c(C(F)(F)F)cc(-c3ccccc3)nc2c1Cl,> 19.5 µM (inactive)
21,Cc1ccc(C(c2cc(Cl)c3cccnc3c2O)N2CCN(C)CC2)cc1 (centres undefined),5.7 µM
22,Cc1cc(NC(=O)CSc2nc3c(sc4ccccc43)c(=O)n2CCCN2CCOCC2)n[nH]1,7.05 µM
23,Cc1cc(NC(=O)NC2(C(F)(F)F)Oc3ccc(Cl)cc3O2)no1 (centres undefined),7.12 µM

# Same assay, conditions: HEK293T Vif multimerization imaging, 24 h; at 0.75 µM (top of the series)
row,Compound,"activity, higher = inhibition"
1,O=C1S/C(=C/c2ccc(N3CCOCC3)o2)C(=O)N1Cc1c(F)cccc1Cl,inactive

# Same assay, conditions: HEK293T Vif multimerization imaging, 24 h; at 6.8 µM (top of the series)
row,Compound,"activity, higher = inhibition"
1,COc1ccc(OC)c(/C=C/c2nc3ccccc3[nH]c2=O)c1,inactive
2,O=C(Nc1ccc2oc(-c3ccc4ccccc4c3)nc2c1)c1cccs1,inactive

# Same assay, conditions: HEK293T Vif multimerization imaging, 24 h; at 19.5 µM (top of the series)
row,Compound,"activity, higher = inhibition"
1,COCc1cc(C)nc(SCC(=O)Nc2cccc3cccnc23)c1C#N,inactive
2,Cc1cc(/C=C2\C(=N)N3C(SCc4ccccc4)=NSC3=NC2=O)c(C)n1Cc1ccccc1,inactive
3,CC(C)C(NC(=O)c1ccccc1NC(=O)C(C)(C)C)C(=O)N1CCOCC1 (centres undefined),inactive
4,CN(C)c1ccc(/C=C/C(=O)c2ccc3c(c2)OCO3)cc1,inactive
5,O=C(c1cc(-c2ccncc2)nc2ccccc12)N1CCN(Cc2ccccc2)CC1,inactive
6,CCn1c(SCc2nc3ccccc3c(=O)[nH]2)nc2ccccc2c1=O,inactive
7,CCOC(=O)C1CCCN(CC(=O)Nc2c(C(=O)OC)[nH]c3ccc(Cl)cc23)C1 (centres undefined),inactive
8,COc1cccc(CNc2ccc3c(c2)CCC3)c1,inactive
9,O=C(COC(=O)/C=C/C(=O)OCC(=O)Nc1ccccc1F)Nc1ccccc1F,inactive
10,C/C=C/c1ccc(OCCNCc2ccccc2)c(OC)c1,inactive
11,COc1cc(-c2cc(=O)c3c(O)c(OC)c(OC)cc3o2)cc(OC)c1O,inactive
12,CC(C)CC(=O)Nc1ccc(-c2nnn(CC(=O)NCc3ccco3)n2)cc1,inactive
13,Cc1ccc2c(c1)C1CN(C)CCC1N2S(=O)(=O)c1cccc(C(F)(F)F)c1 (centres undefined),inactive
14,Cc1nnc(NC(=O)Cn2nc(C)c3ccccc3c2=O)s1,inactive
15,Cc1ccc(C(=O)COC(=O)c2cc(=O)[nH]c3ccccc23)cc1C,inactive
16,COc1cc(/C=C/C(=O)O)ccc1S(=O)(=O)N1CCCc2ccccc21,inactive
17,CCN1c2ccccc2NC2C1C(C(C)=O)C(=O)N2c1ccc(Cl)cc1 (centres undefined),inactive
18,Cc1ccc2c(c1)N(CC(=O)NCC1CCCO1)C(=O)C(C(C)C)O2 (centres undefined),inactive
19,COc1ccc(OC)c(/C(O)=C/C(=O)C(=O)Nc2cc(C)ccc2OC)c1,inactive
20,CC(C)C(c1nnnn1CC1CCCO1)N1CCN(C2CCCC2)CC1 (centres undefined),inactive
21,Cc1ccc(NC(=O)/C=C/C(=O)O)c(NC(=O)c2ccccc2)c1,inactive
22,Cc1nc(SCC(=O)N2CCCC2=O)nc(C)c1C,inactive
23,CC(=O)Nc1cc(NC(=O)C2C3C=CC(C3)C2C(=O)O)ccc1Cl (centres undefined),inactive

row,Compound,"activity, higher = inhibition"
1,O=C(CCCSc1nc2ccccc2c(=O)[nH]1)c1ccccc1,inactive
2,Cc1ccc(C(=O)NC(CCc2ccccc2)C(=O)O)cc1 (centres undefined),inactive
3,CCOC(=O)Nc1ccc(NCc2ccc(F)cc2)nc1N,inactive
4,COc1c2occc2c(OC)c2c(=O)cc(C)oc12,inactive
5,COc1cccc(NC(=O)CSc2nnc(Cc3ccc(OC)c(OC)c3)o2)c1,inactive
6,Cc1cc(OCC(C)C)ccc1/C(O)=C1/C(=O)C(=O)N(Cc2cccnc2)C1c1ccncc1 (centres undefined),inactive
7,COc1ccc(CNC(=O)CN2C(=O)NC(c3ccccc3)(c3ccccc3)C2=O)cc1,inactive
8,COc1ccc(CN(CC(=O)NC2CCCC2)C(=O)CN2C(=O)COc3ccccc32)cc1,inactive
9,NCCCC[C@H](N[C@@H](CCc1ccccc1)C(=O)O)C(=O)N1CCC[C@H]1C(=O)O,inactive
10,COc1ccc(NC(=O)Cn2nnc(C(=O)Nc3ccccc3C)c2N)cc1,inactive
11,CC(C)CCNC(=O)CCc1nnc(COc2ccccc2)o1,inactive
12,C=CCN1C(=O)/C(=C/c2ccc(-c3ccc(F)cc3)o2)SC1=S,inactive
13,COc1ccc(NC(=O)c2ccccc2NC(=O)CSc2ccc(C)cc2)cc1,inactive
14,COc1ccccc1Nc1nnc(C)c(=O)[nH]1,inactive
15,S=C(NC1CC1)N1CCc2ccccc2C1,inactive
16,Cc1cccc2cc(CN(CC3CCCO3)C(=O)NC3CCCCC3)c(=O)[nH]c12 (centres undefined),inactive
17,CN(C)C(=O)c1cc(Br)ccc1Cl,inactive
18,CCOc1ccc(S(=O)(=O)NCc2ccccn2)cc1NC(=O)c1ccccc1,inactive
19,COc1ccc(N=C2NC(=O)S/C2=C\c2ccc(N(C)C)cc2)cc1,inactive
20,Cc1ccc2c(c1)N(CC(=O)N1CCCCCC1)C(=O)C(C)O2 (centres undefined),inactive
21,COc1ccccc1-c1cccc2nccn12,inactive
22,O=C(Cn1c(=O)oc2cc(S(=O)(=O)N3CCCCC3)ccc21)N1CCc2ccccc21,inactive
23,CCOc1ccc(CC(=O)Nc2sc(Cc3ccccc3)c(C)c2C(N)=O)cc1OCC,inactive

row,Compound,"activity, higher = inhibition"
1,CCn1c(CC(=O)Nc2ccccc2)nnc1SCC(=O)Nc1nnc(C)s1,inactive
2,NCCCCCC(=O)Nc1ccncc1,inactive
3,CCCCCCOC(=O)C(C#N)c1nc2ccccc2nc1N1CCOCC1 (centres undefined),inactive
4,COc1cc(C(=O)NCCc2cn3ccc(C)cc3n2)cc(OC)c1OC,inactive
5,O=C1c2ccccc2C(Nc2ccc(S(=O)(=O)N3CCOCC3)cc2)N1c1ccccn1 (centres undefined),inactive
6,CCOC(=O)C1CCCN1C(=O)C1(NC(C)=O)CCCC1 (centres undefined) (Ac-[Ac5c]-[ξP]-OEt),inactive
7,COc1ccc(S(=O)(=O)Nc2cccc3ccc(O)cc23)cc1,inactive
8,CNC(=O)c1ccc(NC(=O)c2cc(S(=O)(=O)N(C)C)ccc2N2CCCC2)cc1,inactive
9,Cc1nn2c(COc3ccc(NC(=O)c4ccccc4Cl)cc3)nnc2c2ccccc12,inactive
10,O=C(CN(C(=O)c1csnn1)c1ccc(F)cc1)NCc1ccc2c(c1)OCO2,inactive
11,N#CC(C(=O)NCCc1ccccc1)c1nc2ccccc2nc1N1CCOCC1 (centres undefined),inactive
12,COc1cccc(NC(=O)c2cc(C(=O)Nc3cccc(OC)c3)n(C)n2)c1,inactive
13,Cc1cc(S(=O)(=O)N2CCOCC2)ccc1OCC(=O)NCCN1CCOCC1,inactive
14,CCCCOc1ncnc2c1[nH]c1ccccc12,inactive
15,O=C(Nc1nn[nH]n1)c1cc(-c2ccc(Cl)c(Cl)c2Cl)nc2ccccc12,inactive
16,O=C(c1ccc(Cl)c(Cl)c1)N(Cc1ccco1)c1ccc(O)cc1,inactive
17,O=C(Nc1cnccn1)Nc1ccccc1Cl,inactive
18,CCCn1c(=N)c(C(=O)NCc2ccc3c(c2)OCO3)cc2c(=O)n3cccc(C)c3nc21,inactive
19,COC(=O)c1cc(Cl)c(NC(=O)c2cc3ccccc3o2)cc1OC,inactive
20,CCOC(=O)C1(Cc2cccc(OC)c2)CCN(CCO)CC1,inactive
21,Cc1ccc(CNCCCSc2ncccn2)cc1,inactive
22,O=C(C1COc2ccccc2O1)N1CCN(Cc2ccc3c(c2)OCO3)CC1 (centres undefined),inactive
